The values below come from US11447512B2 (Shenzhen TargetRx, Inc., priority 2017, dated 2022).

One data set deals with HBV. Briefly: In vitro anti-HBV activity in HepG2.2.15 cells (HBV DNA by quantitative PCR). It counts as cell-based. The settings on record: Hepatitis B virus. On the procedure: Experimental method: anti-HBV activity of compounds was detected by Bright-Glo (Promega) luciferase.
Anti-cell viability assay: in vitro anti-hepatitis b virus activity of Example compounds was tested in HepG2.2.15 cells with TDF as a positive control compound. Cells were seeded into a 96-well plate on the first day; the compounds were added to treat the cells on the next day; and a new culture medium containing the compounds was replaced on the fifth day. On the eighth day, the supernatant was collected for DNA extraction. The content of HBV DNA was detected by quantitative PCR. Both test compound and TDF were subjected to a 3-fold serial dilution to get 8 concentration points in duplicate. The final concentration of DMSO in the culture medium was 0.5%. The formula for calculating the percentage of inhibition is as follows: Inhibition rate=(1−copy number of HBV in sample/copy number of HBV in DMSO control group)×100%
EC50 is analyzed by Graphpad Prism software (four parameter logistic equations), wherein I represents EC50≤50 nM, II represents 50 nM≤EC50≤200 nM, III represents 200 nM<EC50≤500 nM, IV represents EC50>500 nM (as shown in Table 1 below).

Data set [1] in a line: Rat liver microsome metabolic stability. Format: in vitro ADME. The settings on record: SD, pH 7.4, 1 μM compound, 0.5 mg/mL protein, NADPH; for microsomal CLint / microsomal CLint at 1 μM: read-out: Rat liver microsome experiment CLint; for half-life / half-life at 1 μM: read-out: Rat liver microsome experiment t1/2. On the procedure:
(§1) Microsomal experiments: human liver microsomes: 0.5 mg/mL, Xenotech; rat liver microsomes: 0.5 mg/mL, Xenotech; coenzyme (NADPH/NADH): 1 mM, Sigma Life Science; magnesium chloride: 5 mM, 100 mM phosphate buffer (pH 7.4).
(§2) Preparation of stock solution: powder of Example compounds were precisely weighed and dissolved in DMSO to 5 mM.
(§3) Preparation of phosphate buffer (100 mm, pH7.4): 0.5M pre-formulated potassium dihydrogen phosphate (150 ml) and 0.5M potassium hydrogen phosphate (700 ml) were mixed well. The pH of the mixture was then adjusted to 7.4 with 0.5M potassium hydrogen phosphate solution. The resulting solution was 5-fold diluted with ultrapure water before use, and magnesium chloride was added to the solution, affording a phosphate buffer (100 mm), containing potassium phosphate (100 mM), magnesium chloride (3.3 mM), pH 7.4.
(§4) A NADPH regeneration system solution (containing 6.5 mM NADP, 16.5 mM G-6-P, 3 U/mL G-6-P D, 3.3 mM magnesium chloride) was formulated, which was placed on wet ice before use.
(§5) Preparation of stop solution: 50 ng/mL of propranolol hydrochloride and 200 ng/mL of tolbutamide (internal standard) in acetonitrile. 25057.5 μL of phosphate buffer (pH 7.4) was placed to a 50 mL centrifuge tube, and 812.5 μL human liver microsomes were added to the tube, which were mixed well to give a protein concentration of 0.625 mg/mL liver microsomes diluent. 25057.5 μL of phosphate buffer (pH 7.4) was placed to a 50 ml centrifuge tube, and 812.5 μL SD rat liver microsomes were added to the tube, which were mixed well to give a protein concentration of 0.625 mg/mL liver microsomes diluent.
(§6) Incubation of the sample: the stock solution of the corresponding compounds was diluted to 0.25 mM with 70% acetonitrile in water as a working solution for later use. 398 μL of human liver microsomes dilution or rat liver microsomes dilution was added into 96-well incubation plate (N=2), and 2 μL of 0.25 mM working solution was added to the plate, which were mixed well.
(§7) Metabolic stability assay: 300 μL of pre-chilled stop solution was added to each well of a 96-well deep-well plate and the plate was placed on ice as a stop plate. The 96-well incubation plate and NADPH regeneration system were placed in a 37° C. water bath, shaked at 100 rpm, pre-incubated for 5min. 80 μL of incubation solution was taken from each well of the incubation plate and was added to the stop plate, which were mixed well. 20 μL of NADPH regeneration system solution was supplemented into the mixture to form the 0 min sample. Then 80 μL of NADPH regeneration system solution was added to each well of the incubation plate to initiate the reaction and start timing. The reaction concentration of the corresponding compound was 1 μM, and the protein concentration was 0.5 mg/mL. At 10, 30, and 90 min, 100 μL of the reaction solution was added to the stop plate and vortexed for 3 min to quench the reaction. The stop plate was centrifuged at 5000×g at 4° C. for 10 min. 100 μL of supernatant was taken into a 96-well plate containing 100 μL of distilled water, which were mixed well. LC-MS/MS was used for sample analysis.
(§8) Data analysis: The peak area of the corresponding compounds and internal standard was detected by LC-MS/MS system, and the peak area ratio of compounds to internal standard was calculated. The slope was measured by plotting the natural log of the percentage of the remaining amount of the compounds versus time, and t1/2 and CLint were calculated according to the following formula, where V/M is equal to 1/protein concentration.
For orientation: Liver microsomes are vesicles of endoplasmic reticulum, rich in cytochrome P450 enzymes.

Data set [2] in a line: Cytotoxicity in uninfected MT-4 cells (CellTiter-glo). Format: cell-based. The settings on record: human, read-out: HIV activity and cytotoxicity data CC50; for CC50: 5 days. (Cellular ATP, detected with luciferase, serves as a proxy for viable cell number.)
Description: The data was analyzed by GraphPad Prism software, and the curve was fitted and EC50 and CC50 values were calculated. […] CC50 refers to the inhibitory concentration that reduces the cell growth or viability of uninfected cells by 50%.
The nature of data set [3]: Cytotoxicity experiment of the anti-HBV test (Cell-titer Blue). Format: cell-based. The settings on record: human, six days after treatment.
The test system of the next data set is HIV-1. Briefly: microbe, parasite or virus in culture. The settings on record: Human immunodeficiency virus 1, MT4, 120 h, read-out: HIV activity and cytotoxicity data EC50 (nM). The method, then: The data was analyzed by GraphPad Prism software, and the curve was fitted and EC50 and CC50 values were calculated. EC50 refers to the effective concentration that inhibits 50% virus production, 50% virus infectivity, or 50% virus-induced cellular effects. CC50 refers to the inhibitory concentration that reduces the cell growth or viability of uninfected cells by 50%.
Compound treatment: the test compounds and the reference compounds were 2-fold diluted with DMSO and added to the cell culture plate. The test compounds and the reference compounds were tested at 8 concentrations in duplicate.
Viral infection and cell treatment: HIV-1 and MT-4 cells were co-incubated at 37° C., in an incubator with 5% CO2 for 1 h. The infected cells were then seeded in a cell culture plate at a certain density. The final concentration of DMSO in the cell culture medium was 0.5%. The cells were incubated at 37° C., in an incubator with 5% CO2 for 5 days. The cells tested in the cytotoxicity assay were uninfected MT-4 cells, and other test conditions were with the same as that of the antiviral activity assay.
The activity assay of the cell: the cell viability was tested by using cell viability assay Reagent CellTiter-glo (Promega). The raw data was used for calculating the anti-HIV-1 activity and cytotoxicity of the Compounds.

A short description of data set [4]: Human liver microsome metabolic stability. As to conditions: pH 7.4, 1 μM compound, 0.5 mg/mL protein, NADPH; for microsomal CLint / microsomal CLint at 1 μM: read-out: Human liver microsome experiment CLint; for half-life / half-life at 1 μM: read-out: Human liver microsome experiment t1/2. Format: in vitro ADME. On the procedure: as §1, §2, §3, §4, §5, §6, §7, §8

The conditions of data set [5]: relative to TDF; cited from earlier work.
For data set [6] the following is noted: relative to TDF; cited from earlier work. The source holds these as a separate data set.
[7] abbreviates: HepG2.2.15 cells, HBV DNA in supernatant on the eighth day, read-out: HBV activity and cytotoxicity data EC50.

Structures can show the parent of a compound that is named as a salt. Where two headings read alike, the source gives them in different places.

The term EC50 denotes the concentration at which the effect is half-maximal. In general, CC50 refers to the concentration that lowers cell viability or growth by half.

On to `CCCCCCCCCCCCCCCCOCCCOP(O)(=S)CO[C@H](C)Cn1cnc2c(N)ncnc21` (stereo partly shown) [Compound T-1], for which the EC50 was below 50 nM in the data set with HBV (setting [7]) and 5 to 20 nM with HIV-1. In addition, the microsomal CLint in data set [1] (microsomes) turned out to be 5.6 µL/min/mg; in data set [4] (microsomes), 45.6 µL/min/mg. The half-life in data set [1] (microsomes) came out at 249 min; in data set [4] (microsomes), 3.04 min. Moreover, the CC50 in data set [2] lay within 3000 to 10000 nM; in data set [3], 7000 to 50000 nM.

As to `CC(C)OC(=O)[C@H](C)NP(=S)(CO[C@H](C)Cn1cnc2c(N)ncnc21)Oc1ccccc1` (stereo partly drawn) [Compound T-3, 9-{(R)-2-[({[(S)-1-(isopropoxycarbonyl)ethyl]amino}phenoxythiophosphoryl)methoxy]lpropyl}adenine], the EC50 in the data set with HBV (HepG2.2.15, read-out: HBV activity and cytotoxicity data EC50 (nM)) lay within 50 to 200 nM; in the data set with HIV-1, 5 to 20 nM. Further, the values for the microsomal CLint at 1 μM in data set [1] (microsomes) and in data set [4] (microsomes) were 82.5 µL/min/mg and 285 µL/min/mg, respectively. In addition, the results for the half-life at 1 μM in data set [1] (microsomes) and in data set [4] (microsomes) were 16.8 min and 4.9 min, respectively. Also, the CC50 at 5 days in data set [2] fell in the range of 3000 to 10000 nM. Further, in data set [3], the CC50 at 6 days was above 50000 nM.

In the case of `CCCCCCCCCCCCCCCCOCCCOP(=S)(CO[C@H](C)Cn1cnc2c(N)ncnc21)OCOC(=O)OC(C)C` (stereo partly drawn) [Compound T-4, (R)-9-{2-[(hexadecyloxypropyl)(isopropylcarbonatemethyl)thiophosphorylmethoxy]propyl}adenine], the half-maximal effective concentration (EC50) in the data set with HBV (setting [7]) and in the data set on HIV-1 was above 500 nM throughout. Besides, the microsomal CLint in data set [1] (microsomes) stood at 68.5 µL/min/mg; in data set [4] (microsomes), 116 µL/min/mg. The half-life in data set [1] (microsomes) is 20.2 min; in data set [4] (microsomes) it was 11.9 min. For the same molecule, the CC50 in data set [2] and in data set [3] was above 50000 nM each time.

Regarding `CCCCCCCCCCCCCCCCOCCCOP(=O)(CO[C@H](C)Cn1cnc2c(N)ncnc21)OCOC(=O)SC(C)C` (stereo partly drawn) [Compound T-5, (R)-9-{2-[(hexadecyloxypropyl)(isopropylsulfanylcarbonyloxymethyl)phosphorylmethoxy]propyl}adenine], the values for the EC50 in the data set with HBV (setting [7]) and in the data set with HIV-1 were 50 to 200 nM and 5 to 20 nM, respectively. Further, the microsomal CLint at 1 μM in data set [1] (rat liver microsomes) came to 56.6 µL/min/mg; in data set [4] (human liver microsomes) it was 42.7 µL/min/mg. For the same molecule, the half-life at 1 μM in data set [1] (rat liver microsomes) is 24.5 min; in data set [4] (human liver microsomes) it was 32.5 min. Besides, the CC50 at 5 days in data set [2] was above 50000 nM. The same molecule returned a CC50 at 6 days in data set [3] (HepG2.2.15 cells) above 50000 nM.

As for `CCCCCCCCCCCCCCCCOCCCOP(=S)(CO[C@H](C)Cn1cnc2c(N)ncnc21)N[C@@H](C)C(=O)OC(C)C` (stereo partly shown) [Compound T-6], the figures for the EC50 in the data set on HBV (setting [7]) and in the data set on HIV-1 were 200 to 500 nM and above 500 nM, respectively. For the same molecule, the microsomal CLint was 9.9 µL/min/mg in data set [1] (microsomes) and 12.9 µL/min/mg in data set [4] (microsomes). Also, the half-life in data set [1] (microsomes) worked out at 140 min; in data set [4] (microsomes) it was 107 min. Besides, the CC50 in data set [2] was 3000 to 10000 nM; in data set [3] it was 7000 to 50000 nM.

Turning to `CCCCCCCCCCCCCCCCOCCCOP(=O)(CO[C@H](C)Cn1cnc2c(N)ncnc21)N[C@@H](C)C(=O)SC(C)C` (stereo partly shown) [Compound T-7], the EC50 with HBV (setting [7]) is 50 to 200 nM; in the data set on HIV-1, below 5 nM. Besides, the microsomal CLint at 1 μM was 50.8 µL/min/mg in data set [1] (rat liver microsomes) and 84.4 µL/min/mg in data set [4] (human liver microsomes). Also, the half-life at 1 μM in data set [1] (rat liver microsomes) worked out at 27.3 min; in data set [4] (human liver microsomes), 16.4 min. The CC50 at 5 days in data set [2] lay in the range of 3000 to 10000 nM. The molecule also showed a CC50 at 6 days in data set [3] (HepG2.2.15 cells) of 7000 to 50000 nM.

Turning to `CC(=O)SCCOP(=O)(CO[C@H](C)Cn1cnc2c(N)ncnc21)OCOC(=O)OC(C)C` (stereo partly drawn) [Compound T-8, (R)-9-{2-[(acetylsulfanylethyl)(isopropylcarbonatemethyl)phosphorylmethoxy]propyl}adenine], the EC50 in the data set with HBV (setting [7]) lay in the range of 200 to 500 nM; with HIV-1, 20 to 100 nM. For the same molecule, the microsomal CLint at 1 μM turned out to be 92.7 µL/min/mg in data set [1] (rat liver microsomes) and 84.1 µL/min/mg in data set [4] (human liver microsomes). In addition, the half-life at 1 μM in data set [1] (rat liver microsomes) was 14.9 min; in data set [4] (human liver microsomes), 16.5 min. For the same molecule, the CC50 at 5 days in data set [2] is 10000 to 50000 nM. The molecule also displayed a CC50 at 6 days in data set [3] (HepG2.2.15 cells) above 50000 nM.

With `CC(C)OC(=O)[C@H](C)N[P@](=O)(CO[C@H](C)Cn1cnc2c(N)ncnc21)Oc1ccccc1` [TAF, Tenofovir Alafenamide Fumarate], in data set [5], the “concentration of TFV in plasma metabolized by TAF, lower than that of TDF” value is given as 90%. Besides, the “concentration of TFV in immune cells metabolized by TAF, higher than that of TDF” value in data set [6] is 4 times.
